Measurements from patent US20130190314A1, “DERIVATIVES OF 6-CYCLOAMINO-2-THIENYL-3-(PYRIDIN-4-YL)IMIDAZO[1,2-b]-PYRIDAZINE AND 6-CYCLOAMINO-2-FURANYL-3-(PYRIDIN-4-YL)IMIDAZO[1,2-b]-PYRIDAZINE, PREPARATION AND THERAPEUTIC USE THEREOF” (priority 2008, published 2013).

Key:
[1] = system: Mper1-luc Rat-1 (P2C4) fibroblasts; assay: Circadian cell assay: mPer1-promoter luciferase reporter, period prolongation; type: cell-based; conditions: effective concentration that induced a 1-hour prolongation of the circadian period
Description: Mper1-luc Rat-1 (P2C4) fibroblast cultures were prepared by dividing the cultures every 3-4 days (approximately 10-20% of confluence) on 150 cm^2 degassed polystyrene tissue culture flasks (Falcon® #35-5001) and maintained in growth medium [EMEM (Cellgro #10-010-CV); 10% foetal bovine serum (FBS; Gibco #16000-044); and 50 I.U./ml of penicillin-streptomycin (Cellgro #30-001-CI)] at 37° C. and under 5% CO2.
Cells obtained from Rat-1 fibroblast cultures at 30-50% of confluence as described above were co-transfected with vectors containing the selectable marker for zeocin resistance for a stable transfection and a luciferase reporter gene controlled by the mPer-1 promoter. After 24 to 48 hours, the cultures were divided on 96-well plates and maintained in growth medium supplemented with 50-100 μg/ml of zeocin (Invitrogen® #45-0430) for 10-14 days. The zeocin-resistant stable transfectants were evaluated for the expression of the reporter gene by adding 100 μM luciferin (Promega® #E1603®) to the growth medium and by assaying the luciferase activity on a TopCount® scintillation counter (Packard Model #C384V00). The Rat-1 cell clones expressing both zeocin resistance and luciferase activity controlled by mPer1 were serum-shock synchronized with 50% horse serum [HS (Gibco® #16050-122)] and the activity of the circadian reporter was evaluated. The P2C4 clone of Mper1-luc Rat-1 fibroblasts was selected to test the compound.
Mper1-luc Rat-1 (P2C4) fibroblasts at 40-50% of confluence, obtained according to the protocol described above, were plated out onto 96-well opaque tissue culture plates (Perkin Elmer® #6005680). The cultures are maintained in growth medium supplemented with 100 μg/mL of zeocin (Invitrogen #45-0430) until they have reached 100% of confluence (48-72 h). The cultures were then synchronized with 100 μl of synchronization medium [EMEM (Cellgro #10-010-CV); 100 I.U./ml of penicillin-streptomycin (Cellgro #30-001-C1); HS at 50% (Gibco #16050-122)] for 2 hours at 37° C. and under 5% CO2. After synchronization, the cultures were rinsed with 100 μl of EMEM (Cellgro #10-010-CV) for 10 minutes at ambient temperature. After rinsing, the medium was replaced with 300 μl of CO2 independent medium [CO2I (Gibco #18045-088); 2 mM L-glutamine (Cellgro #25-005-C1); 100 I.U./ml of penicillin-streptomycin (Cellgro #30-001-C1); 100 μM luciferin (Promega #E 1603)]. […]
The period analysis was performed either by determining the interval between the relative light emission minima over several days or by Fourier transform. […] The data were analysed by adjusting a hyperbolic curve to the data expressed as change of period (Y-axis) as a function of the concentration of the test compound (X-axis) in the XLfit™ software, and the CE Delta (t+1 h) was interpolated from this curve.

SMILES	melting point [°C]	CE Delta (t + 1 h) [1] [nM]
OCCN1CCN(c2ccc3nc(-c4ccc(Cl)s4)c(-c4ccncc4)n3n2)CC1 [Compound 14, 2-{4-[2-(5-chlorothien-2-yl)-3-(pyridin-4-yl)imidazo[1,2-b]pyridazin-6-yl](piperazin-1-yl)}ethanol]	216 to 218	60 to 117
Cc1ccc(-c2nc3ccc(N4CCNCC4)nn3c2-c2ccncc2)s1 [Compound 10, 2-(5-methylthien-2-yl)-6-(piperazin-1-yl)-3-(pyridin-4-yl)imidazo[1,2-b]pyridazine]		360
